Reference: patent US20020040027A1, “Method for the prevention of the reinfestation of warm-blooded animals by ectoparasites” (priority 1996, published 2002)

Tests used:
Amblyomma hebraeum = assay: Tick control by subcutaneous administration of the active ingredient to the host animal (chicks); assay type: in vivo; settings: subcutaneously injected dose of 3 mg/kg of body weight, treated vs untreated chicks; for % reduction nymphs: nymphs moulted from collected larvae; for % reduction larvae: replete larvae
Protocol: Tick control by subcutaneous administration of the active ingredient to the host animal
13 day-old chicks of a fattened breed are infected with about 200 larvae of the tick species Amblyomma hebraeum and placed in pairs in cages. After three days, the chicks are injected subcutaneously with the active ingredient in an aqueous suspension. Within 2 to 6 days of the treatment, i.e. 5 to 9 days after infection, the replete tick larvae fall from the chicks can be collected and counted. The activity of the test compounds is calculated on the basis of the number of replete larvae on treated and untreated chicks in accordance with the formula [formula]
where Ct is the average number of larvae from treated chicks and Cu is the average number of larvae from untreated chicks.
In order to determine this type of activity, the replete larvae are kept, separated into treatment groups, in an incubator until all the larvae collected from untreated chicks have moulted. The activity is calculated using the above mentioned formula, with the average number of nymphs being used instead of the average number of larvae.
Reduction of more than + 80 % can be regarded as systemic action.

[1] = test system: cat fleas [Ctenocephalides felis]; assay: Flea control by oral administration of the active ingredient to the host animal (cats); assay type: in vivo; settings: cats infected with 100 cat fleas, treated orally on day 0 with 50 mg/kg of body weight (capsule); after 45 days
Protocol: Flea control by oral administration of the active ingredient to the host animal 20 cats with the proven ability permanently to maintain a flea population are divided into 6 groups: 5 groups each being composed of 3 or 4 animals and a sixth group, which serves as the control group, being composed of 2 animals. Each of the cats is infected with 100 cat fleas [Ctenocephalides felis]. The cats of the 5 groups are treated orally on day 0 with 50 mg of active ingredient per kg of body weight. The active ingredient is administered in the form of a capsule. The control group remains untreated. […] The eggs are counted and placed on a medium suitable for the growth of larvae and incubated. The number of pupae and fully grown fleas that develop is determined.

Row | Compound | % reduction nymphs (Amblyomma hebraeum) [%] | % reduction larvae (Amblyomma hebraeum) [%] | inhibition of the development of fleas [1] [%]
1 | CCC1OCC(C)(COc2ccc(Oc3cccc(F)c3)cc2)O1 (stereo not shown) [compound 1, 2-ethyl-4-[4-(3-fluorophenoxy)-phenoxymethyl]-4-methyl-1,3-dioxolane] | 83 | 83 | 
2 | CCC1OCC(COc2ccc(Oc3cccc(F)c3)cc2)O1 (stereo not shown) [compound 3, 2-ethyl-4-[4-(3-fluorophenoxy)-phenoxymethyl]-1,3-dioxolane] | 80 | 78 | 100
3 | CC(C)C1OCC(COc2ccc(Oc3cc(F)cc(F)c3)cc2)O1 (stereo not shown) [4-[4-(3,5-difluorophenoxy)-phenoxymethyl]-2-isopropyl-1,3-dioxolane] |  |  | 100
4 | CC1(C)OCC(COc2ccc(Oc3cccc(F)c3)cc2)O1 (stereo not shown) [2-dimethyl-4-[4-(3-fluorophenoxy)-phenoxymethyl]-1,3-dioxolane] |  |  | 100
5 | c1ccc(Oc2ccc(OCC3COC(C4CC4)O3)cc2)cc1 (stereo not shown) [compound 2, 2-cyclopropyl-4-[4-(phenoxy)-phenoxymethyl]-1,3-dioxolane] | 83 | 82 | 
6 | CC1(C)OCC(COc2ccc(Oc3cc(F)cc(F)c3)cc2)O1 (stereo not shown) [2-dimethyl-4-[4-(3,5-difluorophenoxy)-phenoxymethyl]-1,3-dioxolane] |  |  | 100
